Experimental data from patent US20240279236A1, “COMPOUNDS AND METHODS OF TREATING TUBERCULOSIS” (Fimbrion Therapeutics, Inc., priority 2021, published 2024).

Test system: WT Mtb Erdman strain
Assay: Microplate Alamar Blue Assay (MABA), Mtb growth inhibition
Type: cell-based, Mycobacterium tuberculosis
Conditions: Mycobacterium tuberculosis, ERDMAN, 168 h, Middlebrook 7H9 media, 7 days at 37° C. in 5% CO2

Row | Compound | IC50
1 | Cc1cc2c(NCCCc3ccc(-c4cnc(OC(C)C)cn4)cc3)nc(-c3ccoc3)nc2s1 [Example 392, 2-(furan-3-yl)-6-methyl-N-(3-(4-[5-(propan-2-yloxy)pyrazin-2-yl]phenyl)propyl)thieno[2,3-d]pyrimidin-4-amine] | 44 nM
2 | Cc1cnc(-c2ccc(CCCNc3nc(-c4ccoc4)nc4sc(C)cc34)cc2)cn1 [Example 393, 2-(furan-3-yl)-6-methyl-N-(3-[4-(5-methyl-pyrazin-2-yl)phenyl]propyl) thieno[2,3-d] pyrimidin-4-amine] | 16 nM
3 | Cc1cc2c(NCCCc3ccc(-c4ncc(C(F)(F)F)cn4)cc3)nc(-c3ccoc3)nc2s1 [Example 394, 2-(furan-3-yl)-6-methyl-N-(3-(4-[5-(trifluoromethyl)pyrimidin-2-yl]phenyl)propyl) thieno[2,3-d] pyrimidin-4-amine] | < 4 nM
4 | Cc1cc2c(NCCCc3ccc(-c4cnc(Cl)cn4)cc3)nc(-c3ccoc3)nc2s1 [Example 395, N-(3-[4-(5-chloropyrazin-2-yl)phenyl]propyl)-2-(furan-3-yl)-6-methylthieno[2,3-d]pyrimidin-4-amine] | 5 nM
5 | Cc1cc2c(NCCCc3ccc(-c4cnc(C#N)cn4)cc3)nc(-c3ccoc3)nc2s1 [Example 396, 5-[4-(3-([2-(furan-3-yl)-6-methylthieno[2,3-d]pyrimidin-4-yl]amino)propyl)phenyl]pyrazine-2-carbonitrile] | < 5 nM
6 | Cc1cc2c(NCCCc3ccc(-c4cnc5[nH]ccc5n4)cc3)nc(-c3ccoc3)nc2s1 [Example 397, 2-(furan-3-yl)-6-methyl-N-[3-(4-(5H-pyrrolo[2,3-b]pyrazin-2-yl)phenyl)propyl] thieno[2,3-d] pyrimidin-4-amine] | 5000 nM
7 | Cc1cc2c(NCCCc3ccc(-c4ccc(S(C)(=O)=O)cn4)cc3)nc(-c3ccoc3)nc2s1 [Example 398, 2-(furan-3-yl)-N-(3-[4-(5-methanesulfonyl-pyridin-2-yl)phenyl]propyl)-6-methylthieno [2,3-d]pyrimidin-4-amine] | > 460 nM
8 | CSc1cnc(-c2ccc(CCCNc3nc(-c4ccoc4)nc4sc(C)cc34)cc2)cn1 [Example 399, 2-(furan-3-yl)-6-methyl-N-(3-(4-[5-(methylsulfanyl)pyrazin-2-yl]phenyl)propyl) thieno[2,3-d] pyrimidin-4-amine] | > 270 nM
9 | Cc1cc2c(NCCCc3ccc(-c4ccc(N(C)C)nn4)cc3)nc(-c3ccoc3)nc2s1 [Example 400, 6-[4-(3-([2-(furan-3-yl)-6-methylthieno [2,3-d]pyrimidin-4-yl]amino)propyl)phenyl]-N,N-dimethylpyridazin-3-amine] | > 500 nM
10 | Cc1cc2c(NCCCc3ccc(-c4cnc(C(=O)N(C)C)cn4)cc3)nc(-c3ccoc3)nc2s1 [Example 401, 5-[4-(3-([2-(furan-3-yl)-6-methylthieno[2,3-d]pyrimidin-4-yl]amino)propyl)phenyl]-N,N-dimethylpyrazine-2-carboxamide] | 2200 nM
11 | Cc1cc2c(NCCCc3ccc(-c4ncc(F)cn4)cc3)nc(-c3ccoc3)nc2s1 [Example 402, N-(3-[4-(5-fluoropyrimidin-2-yl)phenyl]propyl)-2-(furan-3-yl)-6-methylthieno[2,3-d]pyrimidin-4-amine] | 8 nM
12 | Cc1cc2c(NCCCc3ccc(-c4cnc(CO)cn4)cc3)nc(-c3ccoc3)nc2s1 [Example 403, (5-[4-(3-([2-(furan-3-yl)-6-methylthieno[2,3-d]pyrimidin-4-yl]amino)propyl)phenyl]pyrazin-2-yl)methanol] | 70 nM
13 | CCc1nc(NCCCc2ccc(N3CCOCC3)cc2)c2cc(C)sc2n1 [Example 420, 2-ethyl-6-methyl-N-(3-(4-morpholinophenyl)propyl)thieno[2,3-d]pyrimidin-4-amine] | 160 nM
14 | CCc1nc(NCCCc2ccc(N3CCCCC3)cc2)c2cc(C)sc2n1 [Example 421, 2-ethyl-6-methyl-N-(3-(4-(piperidin-1-yl)phenyl)propyl) thieno[2,3-d]pyrimidin-4-amine] | 170 nM
15 | Cc1cc2c(NCCCc3ccc(N4CCOCC4)cc3)nc(C(F)(F)F)nc2s1 [Example 422, 6-methyl-N-(3-(4-morpholinophenyl)propyl)-2-(trifluoromethyl) thieno[2,3-d]pyrimidin-4-amine] | 2100 nM
16 | CSc1nc(NCCCc2ccc(-c3cnc(F)cn3)cc2)c2nc(C)sc2n1 [Example 424, N-(3-[4-(5-fluoropyrazin-2-yl)phenyl]propyl)-2-methyl-5-(methylsulfanyl)-[1,3]thiazolo[5,4-d]pyrimidin-7-amine] | 41 nM
17 | CSc1nc(NCCCc2ccc(-c3ccc(Cl)cc3)cc2)c2cc(C)sc2n1 [Example 425, N-(3-(4′-chloro-[1,1′-biphenyl]-4-yl)propyl)-6-methyl-2-(methylthio)thieno[2,3-d]pyrimidin-4-amine] | 17 nM
18 | Cc1cc2c(NCCCc3ccc(-c4ccc(OC(F)(F)F)cc4)cc3)nc(-c3ccncn3)nc2s1 [Example 426, 6-methyl-2-(pyrimidin-4-yl)-N-(3-(4′-(trifluoromethoxy)-[1,1′-biphenyl]-4-yl)propyl)thieno[2,3-d]pyrimidin-4-amine] | 76 nM

Row | Compound | IC50
19 | Cc1cc2c(NCCCc3ccc(-c4ccc(C#N)cc4)cc3)nc(-c3ccoc3)nc2s1 [Example 427, 4′-(3-((2-(furan-3-yl)-6-methylthieno[2,3-d]pyrimidin-4-yl)amino)propyl)-[1,1′-biphenyl]-4-carbonitrile] | 16 nM
20 | Cc1cc2c(NCCCc3ccc(-c4ccc(C(F)(F)F)nc4)cc3)nc(-c3ccoc3)nc2s1 [Example 428, 2-(furan-3-yl)-6-methyl-N-(3-(4-(6-(trifluoromethyl)pyridin-3-yl)phenyl)propyl)thieno[2,3-d]pyrimidin-4-amine] | 20 nM
21 | Cc1cc2c(NCCCc3ccc(-c4ccc(C5CC5)cc4)cc3)nc(-c3ccoc3)nc2s1 [Example 429, N-(3-(4′-cyclopropyl-[1,1′-biphenyl]-4-yl)propyl)-2-(furan-3-yl)-6-methylthieno[2,3-d]pyrimidin-4-amine] | 20 nM
22 | CSc1nc(NCCCc2ccc(-c3ccc(C4CC4)cc3)cc2)c2cc(C)sc2n1 [Example 430, N-(3-(4′-cyclopropyl-[1,1′-biphenyl]-4-yl)propyl)-6-methyl-2-(methylthio)thieno[2,3-d]pyrimidin-4-amine] | 18 nM
23 | CSc1nc(NCCCc2ccc(-c3ccc(C(F)(F)F)nc3)cc2)c2cc(C)sc2n1 [Example 431, 6-methyl-2-(methylthio)-N-(3-(4-(6-(trifluoromethyl)pyridin-3-yl)phenyl)propyl)thieno[2,3-d]pyrimidin-4-amine] | 20 nM
24 | CSc1nc(NCCCc2ccc(-c3ccc(C#N)cc3)cc2)c2cc(C)sc2n1 [Example 432, 4′-(3-((6-methyl-2-(methylthio)thieno[2,3-d]pyrimidin-4-yl)amino)propyl)-[1,1′-biphenyl]-4-carbonitrile] | 14 nM
25 | Cc1cc2c(NCCCc3ccc(-c4ccc(OC(F)(F)F)cc4)cc3)nc(Cl)nc2s1 [Example 433, 2-chloro-6-methyl-N-(3-(4′-(trifluoromethoxy)-[1,1′-biphenyl]-4-yl)propyl)thieno[2,3-d]pyrimidin-4-amine] | 54 nM
26 | Cc1cc2c(NCCCc3ccc(-c4ccc(Cl)cc4)cc3)nc(-c3ccoc3)nc2s1 [Example 434, N-(3-(4′-chloro-[1,1′-biphenyl]-4-yl)propyl)-2-(furan-3-yl)-6-methylthieno[2,3-d]pyrimidin-4-amine] | 10 nM
27 | Cc1cc2c(NCCCc3ccc(-c4ccc(Cl)cc4)cc3)nc(Cl)nc2s1 [Example 435, 2-chloro-N-(3-(4′-chloro-[1,1′-biphenyl]-4-yl)propyl)-6-methylthieno[2,3-d]pyrimidin-4-amine] | 30 nM
28 | Cc1cc2c(NCCCc3ccc(-c4ccc(Cl)cc4)cc3)nc(-c3ccc(F)cc3)nc2s1 [Example 436, N-(3-(4′-chloro-[1,1′-biphenyl]-4-yl)propyl)-2-(4-fluorophenyl)-6-methylthieno[2,3-d]pyrimidin-4-amine] | 220 nM
29 | Cc1cc2c(NCCCc3ccc(-c4ccc(C5CC5)cc4)cc3)nc(Cl)nc2s1 [Example 437, 2-chloro-N-(3-(4′-cyclopropyl-[1,1′-biphenyl]-4-yl)propyl)-6-methylthieno[2,3-d]pyrimidin-4-amine] | 85 nM
30 | Cc1cc2c(NCCCc3ccc(-c4ccc(C(F)(F)F)nc4)cc3)nc(Cl)nc2s1 [Example 438, 2-chloro-6-methyl-N-(3-(4-(6-(trifluoromethyl)pyridin-3-yl)phenyl)propyl)thieno[2,3-d]pyrimidin-4-amine] | 140 nM
31 | Cc1cc2c(NCCCc3ccc(-c4ccc(C#N)cc4)cc3)nc(Cl)nc2s1 [Example 439, 4′-(3-((2-chloro-6-methylthieno[2,3-d]pyrimidin-4-yl)amino)propyl)-[1,1′-biphenyl]-4-carbonitrile] | 93 nM
32 | Cc1cc2c(NCCCc3ccc(-c4ccc(OC(F)(F)F)cc4)cc3)nc(-c3cccn3C)nc2s1 [Example 440, 6-methyl-2-(1-methyl-1H-pyrrol-2-yl)-N-(3-(4′-(trifluoromethoxy)-[1,1′-biphenyl]-4-yl)propyl)thieno[2,3-d]pyrimidin-4-amine] | 8100 nM
33 | Cc1cc2c(NCCCc3ccc(-c4ccc(OC(F)(F)F)cc4)cc3)nc(-c3ccn(C)c3)nc2s1 [Example 441, 6-methyl-2-(1-methyl-1H-pyrrol-3-yl)-N-(3-(4′-(trifluoromethoxy)-[1,1′-biphenyl]-4-yl)propyl)thieno[2,3-d]pyrimidin-4-amine] | 49 nM
34 | Cc1cc2c(NCCCc3ccc(-c4ccc(OC(F)(F)F)cc4)cc3)nc(-c3cnc[nH]3)nc2s1 [Example 442, 2-(1H-imidazol-5-yl)-6-methyl-N-(3-(4′-(trifluoromethoxy)-[1,1′-biphenyl]-4-yl)propyl)thieno[2,3-d]pyrimidin-4-amine] | 230 nM
35 | Cc1cc2c(NCCCc3ccc(-c4ccc(OC(F)(F)F)cc4)cc3)nc(-c3cn(C)cn3)nc2s1 [Example 443, 6-methyl-2-(1-methyl-1H-imidazol-4-yl)-N-(3-(4′-(trifluoromethoxy)-[1,1′-biphenyl]-4-yl)propyl)thieno[2,3-d]pyrimidin-4-amine] | 300 nM
